Structures can show the parent of a compound that is named as a salt.
Experiment: Stress stability of amorphous Cinacalcet Hydrochloride, assay by HPLC
Assay type: physicochemical
Conditions: stressed in a closed vial at 60° C. for 24 hours
Procedure: A sample of amorphous Cinacalcet Hydrochloride from Example 1 was stressed in a closed vial at 60° C. for 24 hours. […] Vol 7 μm; temperature 40° C. sample preparation: approximately 10 mg of sample dissolved in 25 ml of eluent B gradient: [table] Area %/mg of starting material and stressed sample were compared

Which “decrease in assay measured by HPLC (area %/mg of starting material and stressed sample compared)” value does the source give for C[C@@H](NCCCc1cccc(C(F)(F)F)c1)c1cccc2ccccc12 [N-[1-(R)-(−)-(1-naphthyl)ethyl]-3-[3-(trifluoromethyl)phenyl]-1-aminopropane hydrochloride] here?
Its value is “No decrease in assay”.

Reference: patent US20090258949A1, “AMORPHOUS FORM OF CINACALCET” (priority 2006, published 2009)
